Laboratory results reported in patent US20240279220A1, “INDOLE COMPOUNDS AND METHODS OF USE” (Genzyme Corporation, priority 2021, published 2024).

Each compound was assayed on NBD1/3D (assay: Aggregation analysis using differential static light scattering (DSLS), NBD1 thermal stability). Conditions: ΔTagg versus DMSO control; compound at 100 μM.
Format: binding, Human
Summary of the method: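 Purified NBD1 at 0.2 mg/ml in S200 buffer (pH 7.6, 2 mM ATP, 5 mM MgCl2, 1% glycerol) was heated with compound at 1 °C/min to 70 °C. Tagg taken from the light-scattering curve inflection point; ΔTagg = compound Tagg minus mean DMSO control Tagg.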

Compound	DSLS NBD1/3D Human Stability delta-T (° C.) @ 100 (μM)
COC(=O)C(F)Cc1cccc(C(O)c2cnc(-c3cccc(Oc4ccc5[nH]ccc5c4C)c3)[nH]2)c1 (centres unmarked) [Example 173, Methyl 2-fluoro-3-(3-(hydroxy(2-(3-((4-methyl-1H-indol-5-yl)oxy)phenyl)-1H-imidazol-5-yl)methyl)phenyl)propanoate]	B (B: 5-10° C.)
C=Cc1c(Oc2cccc(-c3ncc(C(O)c4cccc(CCC(=O)O)c4)[nH]3)c2)ccc2[nH]ccc12 (centres unmarked) [Example 174, 3-(3-(hydroxy(2-(3-((4-vinyl-1H-indol-5-yl)oxy)phenyl)-1H-imidazol-5-yl)methyl)phenyl)propanoic acid]	B (B: 5-10° C.)
O=C(O)CCc1cccc(C(O)c2cnc(-c3cccc(Oc4ccc5[nH]ccc5c4C4CC4)c3)[nH]2)c1 (centres unmarked) [Example 175, 3-(3-((2-(3-((4-cyclopropyl-1H-indol-5-yl)oxy)phenyl)-1H-imidazol-5-yl)(hydroxy)methyl)phenyl)propanoic acid]	B (B: 5-10° C.)
Cc1c(Oc2cccc(-c3ncc(C(O)c4cccc(C5CC5C(=O)O)c4)[nH]3)c2)ccc2[nH]ccc12 (centres unmarked) [Example 176, 2-(3-(hydroxy(2-(3-((4-methyl-1H-indol-5-yl)oxy)phenyl)-1H-imidazol-5-yl)methyl)phenyl)cyclopropane-1-carboxylic acid]	B (B: 5-10° C.)
O=C(O)CCc1cccc(C(O)c2c[nH]c(-c3cc(Oc4c(F)cc5[nH]ccc5c4F)ccc3F)n2)c1 (centres unmarked) [Example 177, 3-(3-((2-(5-((4,6-difluoro-1H-indol-5-yl)oxy)-2-fluorophenyl)-1H-imidazol-4-yl)(hydroxy)methyl)phenyl)propanoic acid]	A (A: T ≥ 10° C.)
O=C(O)CCc1cc(F)cc(C(O)c2c[nH]c(-c3cc(Oc4c(F)cc5[nH]ccc5c4F)ccc3F)n2)c1 (centres unmarked) [Example 178, 3-(3-((2-(5-((4,6-difluoro-1H-indol-5-yl)oxy)-2-fluorophenyl)-1H-imidazol-4-yl)(hydroxy)methyl)-5-fluorophenyl)propanoic acid]	B (B: 5-10° C.)
CC(Cc1cccc([C@H](O)c2cnc(-c3cccc(Oc4c(F)cc5[nH]ccc5c4F)c3)[nH]2)c1)C(=O)O (stereo partly drawn) [Example 181, 3-(3-((S)-(2-(3-((4,6-Difluoro-1H-indol-5-yl)oxy)phenyl)-1H-imidazol-5-yl)(hydroxy)methyl)phenyl)-2-methylpropanoic acid]	B (B: 5-10° C.)
CC(CC(=O)O)c1cccc([C@H](O)c2cnc(-c3cccc(Oc4c(F)cc5[nH]ccc5c4F)c3)[nH]2)c1 (stereo partly drawn) [Example 182, 3-(3-((S)-(2-(3-((4,6-Difluoro-1H-indol-5-yl)oxy)phenyl)-1H-imidazol-5-yl)(hydroxy)methyl)phenyl)butanoic acid]	B (B: 5-10° C.)
CCc1c(Oc2cccc(-c3ncc(C(O)c4cccc(CCC(=O)O)c4)[nH]3)c2)ccc2[nH]ccc12 (centres unmarked) [Example 183, 3-(3-((2-(3-((4-Ethyl-1H-indol-5-yl)oxy)phenyl)-1H-imidazol-5-yl)(hydroxy)methyl)phenyl)propanoic acid]	B (B: 5-10° C.)
Cc1c(Oc2cccc(-c3ncc(C(C)(O)c4cccc(CCC(=O)O)c4)[nH]3)c2)c(F)cc2[nH]ccc12 (centres unmarked) [Example 185, 3-(3-(1-(2-(3-((6-fluoro-4-methyl-1H-indol-5-yl)oxy)phenyl)-1H-imidazol-5-yl)-1-hydroxyethyl)phenyl) propanoic acid]	A (A: T ≥ 10° C.)
Cc1c(Oc2ccc(F)c(-c3ncc(C(C)(O)c4cccc(CCC(=O)O)c4)[nH]3)c2)c(F)cc2[nH]ccc12 (centres unmarked) [Example 186, 3-(3-(1-(2-(2-fluoro-5-((6-fluoro-4-methyl-1H-indol-5-yl)oxy)phenyl)-1H-imidazol-5-yl)-1-hydroxyethyl)phenyl) propanoic acid]	B (B: 5-10° C.)
CC(O)(c1cccc(CCC(=O)O)c1)c1cnc(-c2cc(Oc3c(F)cc4[nH]ccc4c3F)ccc2F)[nH]1 (centres unmarked) [Example 187, 3-(3-(1-(2-(5-((4,6-difluoro-1H-indol-5-yl)oxy)-2-fluorophenyl)-1H-imidazol-5-yl)-1-hydroxyethyl)phenyl) propanoic acid]	A (A: T ≥ 10° C.)
CC(O)(c1cccc(CCC(=O)O)c1)c1c[nH]c(-c2cc(Oc3c(F)cc4[nH]ccc4c3CC(F)F)ccc2F)n1 (centres unmarked) [Example 188, 3-(3-(1-(2-(5-((4-(2,2-difluoroethyl)-6-fluoro-1H-indol-5-yl)oxy)-2-fluorophenyl)-1H-imidazol-4-yl)-1-hydroxyethyl)phenyl) propanoic acid]	B (B: 5-10° C.)
Cc1c(Oc2ccc(F)c(-c3nc(C(C)(O)c4cc(Cl)cc(CCC(=O)O)c4)c[nH]3)c2)c(F)cc2[nH]ccc12 (centres unmarked) [Example 189, 3-(3-chloro-5-(1-(2-(2-fluoro-5-((6-fluoro-4-methyl-1H-indol-5-yl)oxy)phenyl)-1H-imidazol-4-yl)-1-hydroxyethyl)phenyl) propanoic acid]	B (B: 5-10° C.)
CC(O)(c1cccc(CCC(=O)O)c1)c1cnc(-c2cc(Oc3c(F)cc4[nH]ccc4c3CC(F)(F)F)ccc2F)[nH]1 (centres unmarked) [Example 190, 3-(3-(1-(2-(2-fluoro-5-((6-fluoro-4-(2,2,2-trifluoroethyl)-1H-indol-5-yl)oxy)phenyl)-1H-imidazol-5-yl)-1-hydroxyethyl)phenyl) propanoic acid]	B (B: 5-10° C.)
CC(O)(c1cccc(CCC(=O)O)c1)c1cnc(-c2cc(Oc3c(F)cc4[nH]ccc4c3C(F)F)ccc2F)[nH]1 (centres unmarked) [Example 191, 3-(3-(1-(2-(5-((4-(difluoromethyl)-6-fluoro-1H-indol-5-yl)oxy)-2-fluorophenyl)-1H-imidazol-5-yl)-1-hydroxyethyl)phenyl) propanoic acid]	B (B: 5-10° C.)
Cc1c(Oc2ccc(F)c(-c3nc(C(C)(O)c4cc(F)cc(CCC(=O)O)c4)c[nH]3)c2)c(F)cc2[nH]ccc12 (centres unmarked) [Example 192, 3-(3-fluoro-5-(1-(2-(2-fluoro-5-((6-fluoro-4-methyl-1H-indol-5-yl)oxy)phenyl)-1H-imidazol-4-yl)-1-hydroxyethyl)phenyl) propanoic acid]	B (B: 5-10° C.)
CC(O)(c1cccc(CCC(=O)O)c1)c1c[nH]c(-c2cc(Oc3c(F)cc4[nH]ccc4c3C3CC3)ccc2F)n1 (centres unmarked) [Example 193, 3-(3-(1-(2-(5-((4-cyclopropyl-6-fluoro-1H-indol-5-yl)oxy)-2-fluorophenyl)-1H-imidazol-4-yl)-1-hydroxyethyl)phenyl) propanoic acid]	B (B: 5-10° C.)
Cc1c(Oc2ccc(F)c(-c3ncc(C(C)(O)c4cccc(CCC(=O)O)c4)[nH]3)c2)cc(F)c2[nH]ccc12 (centres unmarked) [Example 195, 3-(3-(1-(2-(2-fluoro-5-((7-fluoro-4-methyl-1H-indol-5-yl)oxy)phenyl)-1H-imidazol-5-yl)-1-hydroxyethyl)phenyl) propanoic acid]	B (B: 5-10° C.)
CC(O)(c1cccc(CCC(=O)O)c1)c1cnc(-c2cc(Oc3cc(F)c4[nH]ccc4c3)ccc2F)[nH]1 (centres unmarked) [Example 196, 3-(3-(1-(2-(2-fluoro-5-((7-fluoro-1H-indol-5-yl)oxy)phenyl)-1H-imidazol-5-yl)-1-hydroxyethyl)phenyl) propanoic acid]	B (B: 5-10° C.)
CC(O)(c1cccc(CCC(=O)O)c1)c1cnc(-c2cc(Oc3cc(F)c4[nH]ccc4c3F)ccc2F)[nH]1 (centres unmarked) [Example 197, 3-(3-(1-(2-(5-((4,7-difluoro-1H-indol-5-yl)oxy)-2-fluorophenyl)-1H-imidazol-5-yl)-1-hydroxyethyl)phenyl) propanoic acid]	B (B: 5-10° C.)
CC(O)(c1cccc(CCC(=O)O)c1)c1c[nH]c(-c2cc(Oc3cc4cc[nH]c4c(F)c3F)ccc2F)n1 (centres unmarked) [Example 198, 3-(3-(1-(2-(5-((6,7-difluoro-1H-indol-5-yl)oxy)-2-fluorophenyl)-1H-imidazol-4-yl)-1-hydroxyethyl)phenyl) propanoic acid]	A (A: T ≥ 10° C.)
Cc1c(Oc2ccc(F)c(-c3ncc(C(C)(O)c4cccc(CC(F)C(=O)O)c4)[nH]3)c2)c(F)cc2[nH]ccc12 (centres unmarked) [Example 199, 2-fluoro-3-(3-(1-(2-(2-fluoro-5-((6-fluoro-4-methyl-1H-indol-5-yl)oxy)phenyl)-1H-imidazol-5-yl)-1-hydroxyethyl)phenyl) propanoic acid]	A (A: T ≥ 10° C.)
CC(O)(c1cccc(CCC(=O)O)c1)c1cnc(-c2cc(Oc3c(F)cc4[nH]ccc4c3CCF)ccc2F)[nH]1 (centres unmarked) [Example 200, 3-(3-(1-(2-(2-fluoro-5-((6-fluoro-4-(2-fluoroethyl)-1H-indol-5-yl)oxy)phenyl)-1H-imidazol-5-yl)-1-hydroxyethyl)phenyl) propanoic acid]	A (A: T ≥ 10° C.)
Cc1c(Oc2ccc(F)c(-c3ncc(C(C)(O)c4cccc(CCC(=O)O)c4)[nH]3)c2)c(F)cc2[nH]cc(Cl)c12 (centres unmarked) [Example 201, 3-(3-(1-(2-(5-((3-chloro-6-fluoro-4-methyl-1H-indol-5-yl)oxy)-2-fluorophenyl)-1H-imidazol-5-yl)-1-hydroxyethyl)phenyl) propanoic acid]	B (B: 5-10° C.)
CC(O)(c1cccc(CC(F)C(=O)O)c1)c1cnc(-c2cc(Oc3c(F)cc4[nH]ccc4c3F)ccc2F)[nH]1 (centres unmarked) [Example 202, 3-(3-(1-(2-(5-((4,6-difluoro-1H-indol-5-yl)oxy)-2-fluorophenyl)-1H-imidazol-5-yl)-1-hydroxyethyl)phenyl)-2-fluoropropanoic acid]	A (A: T ≥ 10° C.)
